In patent US6875761B2 (Eisai Co., Ltd., priority 1997, dated 2005):
Counter-ions that a name gives are not always drawn.

melting point [°C]	Compound
123 to 125	CCN1CCN(c2nc(-c3ccc(C(F)CCO)cc3)cc3cccnc23)CC1 (stereo not drawn) (as salt: hydrochloride) [Example 249, 8-(1-ethylpiperazin-4-yl)-6-[4-(3-hydroxy-1-fluoropropyl)phenyl]-1,7-naphthyridine Dihydrochloride]
127 to 132	CCN1CCN(c2nc(-c3ccc(OCC(C)(C)O)cc3)cc3cccnc23)CC1 (as salt: hydrochloride) [Example 250, 8-(1-ethylpiperazin-4-yl)-6-[4-(2-hydroxy-2-methylpropoxy)phenyl]-1,7-naphthyridine Dihydrochloride]
242 to 245	CCN1CCN(c2nc(-c3ccc(OC)cc3)cc3ncccc23)CC1 (as salt: hydrochloride) [Example 252, 5-(1-ethylpiperazin-4-yl)-7-(4-methoxyphenyl)-1,6-naphthyridine Dihydrochloride]
141 to 143	CN1CCN(c2nc(-c3ccc(OCCO)cc3)cc3ccsc23)CC1 (as salt: hydrochloride) [Example 253, 5-[4-(2-hydroxyethoxy)phenyl]-7-(4-methylpiperazin-1-yl)thieno[2,3-c]pyridine Hydrochloride]
132 to 135	CCN1CCN(c2nc(-c3cccc(OCCO)c3)cc3ccsc23)CC1 (as salt: hydrochloride) [Example 258, 7-(1-ethylpiperazin-4-yl)-5-[3-(2-hydroxyethoxy)phenyl]thieno[2,3-c]pyridine Dihydrochloride]
137 to 139	CCN1CCN(c2nc(-c3ccc(OCC(C)(C)O)cc3)cc3ccsc23)CC1 (as salt: hydrochloride) [Example 260, 7-(1-Ethylpiperazin-4-yl)-5-[4-(2-hydroxy-2-methylpropoxy)phenyl]thieno[2,3-c]pyridine dihydrochloride]
182 to 185	CCN1CCN(c2nc(-c3ccc(N4CCOCC4)nc3)cc3ccsc23)CC1 (as salt: hydrochloride) [Example 263, 5-[2-(4-morpholinyl)pyridin-5-yl]-7-(4-ethylpiperazin-1-yl)thieno[2,3-c]pyridine Hydrochloride]
201 to 203	CCN1CCN(c2nc(-c3ccc(N4CCSCC4)nc3)cc3ccsc23)CC1 (as salt: hydrochloride) [Example 264, 5-[2-(4-thiomorpholinyl)pyridin-5-yl]-7-(4-ethylpiperazine-1-yl)thieno[2,3-c]pyridine Hydrochloride]
208 to 210	CCN1CCN(c2nc(-c3ccc(N4CCC(O)CC4)nc3)cc3ccsc23)CC1 (as salt: hydrochloride) [Example 265, 5-[2-(4-hydroxypiperidin-1-yl)pyridin-5-yl]-7-(4-ethylpiperazin-1-yl)thieno[2,3-c]pyridine Hydrochloride]
176 to 179	CCN1CCN(c2nc(-c3ccc(C4=CCOCC4)cc3)cc3ccsc23)CC1 (as salt: hydrochloride) [Example 266, 5-[4-(5,6-dihydro-2H-pyran-4-yl)phenyl]-7-(4-ethylpiperazin-1-yl)thieno[2,3-c]pyridine Hydrochloride]
116 to 118	CCN1CCN(c2nc(-c3ccc(OCCOC)nc3)cc3ccsc23)CC1 (as salt: hydrochloride) [Example 269, 5-[2-(2-methoxyethoxy)pyridin-5-yl]-7-(4-ethylpiperazin-1-yl)-thieno[2,3-c]pyridine hydrochloride]
168 to 170	CCN1CCN(c2nc(-c3ccc(C4=CCC(O)CC4)cc3)cc3ccsc23)CC1 (stereo not drawn) (as salt: hydrochloride) [Example 270, 5-[4-(4-hydroxycyclohexen-1-yl)phenyl]-7-(4-ethylpiperazin-1-yl)thieno[2,3-c]pyridine hydrochloride]
109 to 114	CCCCC(=O)c1ccc(-c2cc3ccsc3c(N3CCN(CC)CC3)n2)cc1 (as salt: hydrochloride) [Example 271, 7-(1-ethylpiperazin-4-yl)-5-(4-pentanoylphenyl)phenyl)thieno[2,3-c]pyridine dihydrochloride]
139 to 141	CCN1CCN(c2nc(-c3ccc(C(=O)CC(C)C)cc3)cc3ccsc23)CC1 (as salt: hydrochloride) [Example 272, 7-(1-ethylpiperazin-4-yl)-5-[4-(3-methylbutanoyl)phenyl]thieno[2,3-c]pyridine dihydrochloride]
160 to 165	CCN1CCN(c2nc(-c3ccc(C(=O)NC4CCCCC4)cc3)cc3ccsc23)CC1 (as salt: hydrochloride) [Example 273, dihydrochloride]
143 to 146	CCN1CCN(c2nc(-c3ccc(C(=O)N4CCCC4)cc3)cc3ccsc23)CC1 (as salt: hydrochloride) [Example 274, 7-(1-ethylpiperazin-4-yl)-5-[4-(pyrrolidinyl-1-carbonyl)phenyl]thieno[2,3-c]pyridine dihydrochloride]
129 to 131	COc1ccc(-c2cc3ccsc3c(N3CCN(CCO)CC3)n2)cc1 (as salt: hydrochloride) [Example 276, 5-(4-methoxyphenyl)-7-[4-(2-hydroxyethyl)piperazin-1-yl]thieno[2,3-c]pyridine hydrochloride]
148 to 150	CN1CCN(c2nc(-c3ccc(OCCO)cc3)cc3sccc23)CC1 (as salt: hydrochloride) [Example 279, 4-(4-methylpiperazin-1-yl)-6-[4-(2-hydroxyethoxy)phenyl]thieno[3,2-c]pyridine hydrochloride]
126 to 130	CCN1CCN(c2nc(-c3cccc(OCCO)c3)cc3sccc23)CC1 (as salt: hydrochloride) [Example 284, 4-(1-ethylpiperazin-4-yl)-6-[3-(2-hydroxyethoxy)phenyl]thieno-[3,2-c]pyridine dihydrochloride]
122 to 124	CCN1CCN(c2nc(-c3ccc(CCC(C)O)cc3)cc3sccc23)CC1 (stereo not drawn) (as salt: hydrochloride) [Example 285, 4-(1-ethylpiperazin-4-yl)-6-[4-(3-hydroxybutyl)phenyl]thieno[3,2-c]pyridine hydrochloride]
135 to 138	CN1CCN(c2nc(-c3ccc(OCC(C)(C)O)cc3)cc3sccc23)CC1 (as salt: hydrochloride) [Example 288, 6-[4-(2-methyl-2-hydroxypropoxy)phenyl]-4-(4-methylpiperazin-1-yl)thieno[3,2-c]pyridine hydrochloride]

Compound	melting point [°C]
CCN1CCN(c2nc(-c3ccc(OCCO)cc3)cc3ccsc23)CC1 (as salt: hydrochloride) [Example 259, 7-(4-ethylpiperazin-1-yl)-5-(4-hydroxyethoxyphenyl)thieno[2,3-c]pyridine Hydrochloride]	135 to 136
CCN1CCN(c2nc(-c3ccc(OC(C)COC)nc3)cc3ccsc23)CC1 (stereo not drawn) (as salt: hydrochloride) [Example 267, 5-[2-(2-methoxyethoxy-2-methyl)pyridin-5-yl]-7-(4-ethylpiperazin-1-yl)thieno[2,3-c]pyridine Hydrochloride]	112 to 114
CCN1CCN(c2nc(-c3ccc(OCCO)cc3)cc3sccc23)CC1 (as salt: hydrochloride) [Example 286, dihydrochloride]	128 to 129
